In patent publication US10988477B2 (Merck Patent GmbH, priority 2018, dated 2021):

Assays:
[1] = biological target: intracellular GCN2 (phosphorylation of the GCN2 substrate eIF2α) (Homo sapiens, UniProt Q9P2K8); experiment: GCN2 cellular inhibition assay (AlphaScreen SureFire P-eIF2α Ser51, borrelidin-treated U2OS cells); format: cell-based; settings: compounds of Formula II; biomarker assay, phosphorylated eIF2α Ser51 in borrelidin-treated U2OS cells
In short: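 Compound effect on GCN2 is gauged by eIF2α Ser51 phosphorylation in borrelidin-challenged U2OS cells (10 μM, 1 h). Top compound level is 40 μM final.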

GCN2 kinase = GCN2 kinase (Homo sapiens, UniProt Q9P2K8); experiment: GCN2 enzyme inhibition assay (Transcreener ADP2 fluorescence polarization); format: biochemical; settings: compounds of Formula II; 280 μM ATP, 4 nM GCN2 kinase
In short: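 Inhibition of 4 nM GCN2 was measured with compound up to 8 μM final, ATP 280 μM and (RS)7 peptide 200 μM over a 1 h, 25 °C reaction. ADP FP readout; IC50 and Ki(app) calculated from percent inhibition.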

intracellular GCN2 (phosphorylation of the GCN2 substrate eIF2α), sequence (Q9P2K8 whole entry): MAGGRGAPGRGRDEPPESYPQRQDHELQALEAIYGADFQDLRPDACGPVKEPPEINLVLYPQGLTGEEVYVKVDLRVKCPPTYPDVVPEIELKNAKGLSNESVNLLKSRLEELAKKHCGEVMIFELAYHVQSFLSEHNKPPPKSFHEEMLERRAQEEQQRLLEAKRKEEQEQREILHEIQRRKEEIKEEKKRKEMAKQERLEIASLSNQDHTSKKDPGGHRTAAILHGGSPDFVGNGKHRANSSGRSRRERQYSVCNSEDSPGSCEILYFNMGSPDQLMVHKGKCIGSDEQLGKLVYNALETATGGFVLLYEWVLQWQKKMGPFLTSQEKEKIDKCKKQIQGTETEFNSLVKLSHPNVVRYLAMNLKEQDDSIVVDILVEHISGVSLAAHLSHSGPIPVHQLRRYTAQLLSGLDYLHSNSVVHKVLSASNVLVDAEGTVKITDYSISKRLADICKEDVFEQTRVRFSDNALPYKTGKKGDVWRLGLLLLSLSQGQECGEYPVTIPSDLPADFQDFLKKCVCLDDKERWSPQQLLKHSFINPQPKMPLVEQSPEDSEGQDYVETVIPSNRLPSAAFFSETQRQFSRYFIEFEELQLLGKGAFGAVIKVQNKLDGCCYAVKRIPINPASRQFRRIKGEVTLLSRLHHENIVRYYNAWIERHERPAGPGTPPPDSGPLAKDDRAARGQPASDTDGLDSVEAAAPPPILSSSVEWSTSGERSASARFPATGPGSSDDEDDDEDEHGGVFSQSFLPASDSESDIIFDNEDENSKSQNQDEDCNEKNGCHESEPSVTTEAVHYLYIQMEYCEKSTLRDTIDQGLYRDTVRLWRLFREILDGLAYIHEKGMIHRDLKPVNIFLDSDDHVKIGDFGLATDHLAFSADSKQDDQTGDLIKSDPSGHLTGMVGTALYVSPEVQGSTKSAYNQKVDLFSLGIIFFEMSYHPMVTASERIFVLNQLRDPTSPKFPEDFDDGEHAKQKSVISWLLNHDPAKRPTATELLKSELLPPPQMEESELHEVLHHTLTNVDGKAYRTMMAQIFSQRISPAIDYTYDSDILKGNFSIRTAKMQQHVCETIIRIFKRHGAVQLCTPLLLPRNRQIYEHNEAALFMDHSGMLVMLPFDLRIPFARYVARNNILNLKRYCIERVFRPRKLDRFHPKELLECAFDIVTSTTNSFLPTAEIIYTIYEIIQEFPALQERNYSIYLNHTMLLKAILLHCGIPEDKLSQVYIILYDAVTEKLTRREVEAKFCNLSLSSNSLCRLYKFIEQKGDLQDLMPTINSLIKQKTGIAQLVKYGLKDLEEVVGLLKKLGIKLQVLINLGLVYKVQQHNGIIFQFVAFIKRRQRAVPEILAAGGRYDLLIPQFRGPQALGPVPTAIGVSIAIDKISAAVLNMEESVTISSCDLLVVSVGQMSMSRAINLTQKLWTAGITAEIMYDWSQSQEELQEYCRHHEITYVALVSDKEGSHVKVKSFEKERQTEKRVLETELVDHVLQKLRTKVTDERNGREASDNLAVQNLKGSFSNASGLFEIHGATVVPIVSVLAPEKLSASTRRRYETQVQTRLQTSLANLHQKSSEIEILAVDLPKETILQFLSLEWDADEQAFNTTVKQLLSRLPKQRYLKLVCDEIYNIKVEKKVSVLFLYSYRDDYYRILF
GCN2 kinase, sequence (Q9P2K8 whole entry): as above

Structure (SMILES): CNS(=O)(=O)NCC1CN(c2cc(-c3cnc4ccc(C(F)F)nn34)ncn2)CCO1 (centres unmarked) [II-386, 1-((4-(6-(6-(Difluoromethyl)imidazo[1,2-b]pyridazin-3-yl)pyrimidin-4-yl)morpholin-2-yl)methyl)-3-methylsulfuric diamide]
- IC50 [1]: < 500 nM
- Ki (GCN2 kinase): < 10 nM

Structure (SMILES): CC1C(CNS(N)(=O)=O)CCCN1c1cc(-c2cnc3ccc(C(F)F)nn23)ncn1 (centres unmarked) [II-387, 6-(Difluoromethyl)-3-[6-[2-methyl-3-[(sulfamoylamino)methyl]-1-piperidyl]pyrimidin-4-yl]imidazo[1,2-b]pyridazine]
- IC50 [1]: 500 to 5000 nM
- Ki (GCN2 kinase): 10 to 1000 nM

Structure (SMILES): COC1CCN(c2cc(-c3cnc4ccc(C(F)F)nn34)ncn2)CC1CNS(C)(=O)=O (centres unmarked) [II-390, N-((1-(6-(6-(Difluoromethyl)imidazo[1,2-b]pyridazin-3-yl)pyrimidin-4-yl)-4-methoxypiperidin-3-yl)methyl)methanesulfonamide]
- IC50 [1]: < 500 nM
- Ki (GCN2 kinase): < 10 nM

Structure (SMILES): CCC1C(CNS(C)(=O)=O)CCCN1c1cc(-c2cnc3ccc(C(F)F)nn23)ncn1 (centres unmarked) [II-391, N-((1-(6-(6-(Difluoromethyl)imidazo[1,2-b]pyridazin-3-yl)pyrimidin-4-yl)-2-ethylpiperidin-3-yl)methyl)methanesulfonamide]
- IC50 [1]: < 500 nM
- Ki (GCN2 kinase): < 10 nM

Structure (SMILES): CS(=O)(=O)NCC1CCN(c2cc(-c3cnc4ccc(C(F)F)nn34)ncn2)C1 (centres unmarked) [II-394, N-((1-(6-(6-(Difluoromethyl)imidazo[1,2-b]pyridazin-3-yl)pyrimidin-4-yl)pyrrolidin-3-yl)methyl)methanesulfonamide]
- IC50 [1]: 500 to 5000 nM
- Ki (GCN2 kinase): 10 to 1000 nM

Structure (SMILES): CS(=O)(=O)C1CCN(c2cc(-c3cnc4ccc(C(F)F)nn34)ncn2)C1 (centres unmarked) [II-395, 6-(Difluoromethyl)-3-(6-(3-(methylsulfonyl)pyrrolidin-1-yl)pyrimidin-4-yl)imidazo[1,2-b]pyridazine]
- IC50 [1]: > 5000 nM
- Ki (GCN2 kinase): 10 to 1000 nM

Structure (SMILES): CS(=O)(=O)CC1CCN(c2cc(-c3cnc4ccc(C(F)F)nn34)ncn2)C1 (centres unmarked) [II-396, 6-(Difluoromethyl)-3-(6-(3-((methylsulfonyl)methyl)pyrrolidin-1-yl)pyrimidin-4-yl)imidazo[1,2-b]pyridazine]
- IC50 [1]: 500 to 5000 nM
- Ki (GCN2 kinase): 10 to 1000 nM

Structure (SMILES): CC1CC(CNS(C)(=O)=O)CN(c2cc(-c3cnc4ccc(C(F)F)nn34)ncn2)C1 (centres unmarked) [II-397, N-((1-(6-(6-(Difluoromethyl)imidazo[1,2-b]pyridazin-3-yl)pyrimidin-4-yl)-5-methylpiperidin-3-yl)methyl)methanesulfonamide]
- IC50 [1]: < 500 nM
- Ki (GCN2 kinase): < 10 nM

Structure (SMILES): CC1CC(CNS(C)(=O)=O)CN(c2cc(-c3cnc4ccc(C(F)F)nn34)ncn2)C1 (centres unmarked) [II-398, N-((1-(6-(6-(Difluoromethyl)imidazo[1,2-b]pyridazin-3-yl)pyrimidin-4-yl)-5-methylpiperidin-3-yl)methyl)methanesulfonamide]
- IC50 [1]: 500 to 5000 nM
- Ki (GCN2 kinase): 10 to 1000 nM

Structure (SMILES): NC(=O)C1CCN(c2cc(-c3cnc4ccc(C(F)F)nn34)ncn2)C1 (centres unmarked) [II-399, 1-(6-(6-(Difluoromethyl)imidazo[1,2-b]pyridazin-3-yl)pyrimidin-4-yl)pyrrolidine-3-carboxamide]
- IC50 [1]: > 5000 nM
- Ki (GCN2 kinase): 10 to 1000 nM

Structure (SMILES): FC(F)c1ccc2ncc(-c3cc(N4CCOCC45CC5)ncn3)n2n1 [II-400, 4-(6-(6-(Difluoromethyl)imidazo[1,2-b]pyridazin-3-yl)pyrimidin-4-yl)-7-oxa-4-azaspiro[2.5]octane]
- IC50 [1]: > 5000 nM
- Ki (GCN2 kinase): 10 to 1000 nM

Structure (SMILES): CC1(C)COCCN1c1cc(-c2cnc3ccc(C(F)F)nn23)ncn1 [II-402, 4-(6-(6-(Difluoromethyl)imidazo[1,2-b]pyridazin-3-yl)pyrimidin-4-yl)-3,3-dimethylmorpholine]
- IC50 [1]: > 5000 nM
- Ki (GCN2 kinase): 10 to 1000 nM

Structure (SMILES): CC1(C)CN(c2cc(-c3cnc4ccc(C(F)F)nn34)ncn2)C[C@@H](CNS(C)(=O)=O)O1 [II-403, (S)—N-((4-(6-(6-(Difluoromethyl)imidazo[1,2-b]pyridazin-3-yl)pyrimidin-4-yl)-6,6-dimethylmorpholin-2-yl)methyl)methanesulfonamide]
- IC50 [1]: < 500 nM
- Ki (GCN2 kinase): < 10 nM

Structure (SMILES): CS(C)(=O)=NC[C@@H]1CN(c2cc(-c3cnc4ccc(C(F)(F)F)nn34)ncn2)CCO1 [II-406, (S)-Dimethyl(((4-(6-(6-(trifluoromethyl)imidazo[1,2-b]pyridazin-3-yl)pyrimidin-4-yl)morpholin-2-yl)methyl)imino)-λ^6-sulfanone]
- IC50 [1]: > 5000 nM
- Ki (GCN2 kinase): > 1000 nM

Structure (SMILES): CS(C)(=O)=NC1CCCN(c2cc(-c3cnc4ccc(C(F)(F)F)nn34)ncn2)C1 (centres unmarked) [II-407, Dimethyl((1-(6-(6-(trifluoromethyl)imidazo[1,2-b]pyridazin-3-yl)pyrimidin-4-yl)piperidin-3-yl)imino)-λ^6-sulfanone]
- IC50 [1]: > 5000 nM
- Ki (GCN2 kinase): 10 to 1000 nM

Structure (SMILES): CS(C)(=O)=NC1CCCN(c2cc(-c3cnc4ccc(C(F)F)nn34)ncn2)C1 (centres unmarked) [II-408, ((1-(6-(6-(Difluoromethyl)imidazo[1,2-b]pyridazin-3-yl)pyrimidin-4-yl)piperidin-3-yl)imino)dimethyl-λ^6-sulfanone]
- IC50 [1]: 500 to 5000 nM
- Ki (GCN2 kinase): 10 to 1000 nM

Structure (SMILES): NCC1CCN(c2cc(-c3cnc4ccc(C(F)F)nn34)ncn2)C1 (centres unmarked) [II-409, (1-(6-(6-(Difluoromethyl)imidazo[1,2-b]pyridazin-3-yl)pyrimidin-4-yl)pyrrolidin-3-yl)methanamine]
- IC50 [1]: > 5000 nM
- Ki (GCN2 kinase): 10 to 1000 nM

Structure (SMILES): CN1CCN(c2cc(-c3cnc4ccc(C(F)F)nn34)ncn2)C[C@H]1CNS(C)(=O)=O [II-410]
- IC50 [1]: 500 to 5000 nM
- Ki (GCN2 kinase): 10 to 1000 nM

Structure (SMILES): CC1CN(c2cc(-c3cnc4ccc(C(F)F)nn34)ncn2)CC(CNS(C)(=O)=O)N1 (centres unmarked) [II-411]
- IC50 [1]: 500 to 5000 nM
- Ki (GCN2 kinase): 10 to 1000 nM

Structure (SMILES): CC1(NS(C)(=O)=O)CCCN(c2cc(-c3cnc4ccc(C(F)F)nn34)ncn2)C1 (centres unmarked) [II-412, N-(1-(6-(6-(Difluoromethyl)imidazo[1,2-b]pyridazin-3-yl)pyrimidin-4-yl)-3-methylpiperidin-3-yl)methanesulfonamide]
- IC50 [1]: 500 to 5000 nM
- Ki (GCN2 kinase): 10 to 1000 nM

Structure (SMILES): NS(=O)(=O)NCC1CCN(c2cc(-c3cnc4ccc(C(F)F)nn34)ncn2)C1 (centres unmarked) [II-415, 1-((1-(6-(6-(Difluoromethyl)imidazo[1,2-b]pyridazin-3-yl)pyrimidin-4-yl)pyrrolidin-3-yl)methyl)sulfuric diamide]
- IC50 [1]: > 5000 nM
- Ki (GCN2 kinase): 10 to 1000 nM

Structure (SMILES): CC1CN(c2cc(-c3cnc4ccc(C(F)F)nn34)ncn2)CC(CNS(C)(=O)=O)N1C (centres unmarked) [II-418, N-((4-(6-(6-(Difluoromethyl)imidazo[1,2-b]pyridazin-3-yl)pyrimidin-4-yl)-1,6-dimethylpiperazin-2-yl)methyl)methanesulfonamide]
- IC50 [1]: 500 to 5000 nM
- Ki (GCN2 kinase): 10 to 1000 nM

Structure (SMILES): O=S(=O)(N[C@H]1CCCN(c2cc(-c3cnc4ccc(C(F)F)nn34)ncn2)C1)C1COC1 [II-419, (S)—N-(1-(6-(6-(Difluoromethyl)imidazo[1,2-b]pyridazin-3-yl)pyrimidin-4-yl)piperidin-3-yl)oxetane-3-sulfonamide]
- IC50 [1]: 500 to 5000 nM
- Ki (GCN2 kinase): 10 to 1000 nM

Structure (SMILES): O=S(=O)(CC1CC1)N[C@H]1CCCN(c2cc(-c3cnc4ccc(C(F)F)nn34)ncn2)C1 [II-420, (S)-1-Cyclopropyl-N-(1-(6-(6-(difluoromethyl)imidazo[1,2-b]pyridazin-3-yl)pyrimidin-4-yl)piperidin-3-yl)methanesulfonamide]
- IC50 [1]: 500 to 5000 nM
- Ki (GCN2 kinase): 10 to 1000 nM

Structure (SMILES): CCS(=O)(=O)N[C@H]1CCCN(c2cc(-c3cnc4ccc(C(F)F)nn34)ncn2)C1 [II-421, (S)—N-(1-(6-(6-(Difluoromethyl)imidazo[1,2-b]pyridazin-3-yl)pyrimidin-4-yl)piperidin-3-yl)ethanesulfonamide]
- IC50 [1]: 500 to 5000 nM
- Ki (GCN2 kinase): 10 to 1000 nM

Structure (SMILES): CNS(=O)(=O)N[C@H]1CCCN(c2cc(-c3cnc4ccc(C(F)F)nn34)ncn2)C1 [II-422, (S)-1-(1-(6-(6-(Difluoromethyl)imidazo[1,2-b]pyridazin-3-yl)pyrimidin-4-yl)piperidin-3-yl)-3-methylsulfuric diamide]
- IC50 [1]: < 500 nM
- Ki (GCN2 kinase): 10 to 1000 nM

Structure (SMILES): CC1CN(C)C(CNS(C)(=O)=O)CN1c1cc(-c2cnc3ccc(C(F)F)nn23)ncn1 (centres unmarked) [II-423, N-((4-(6-(6-(Difluoromethyl)imidazo[1,2-b]pyridazin-3-yl)pyrimidin-4-yl)-1,5-dimethylpiperazin-2-yl)methyl)methanesulfonamide]
- IC50 [1]: > 5000 nM
- Ki (GCN2 kinase): 10 to 1000 nM

Structure (SMILES): CC1C(CS(N)(=O)=O)CCCN1c1cc(-c2cnc3ccc(C(F)F)nn23)ncn1 (centres unmarked) [II-424, (1-(6-(6-(Difluoromethyl)imidazo[1,2-b]pyridazin-3-yl)pyrimidin-4-yl)-2-methylpiperidin-3-yl)methanesulfonamide]
- IC50 [1]: < 500 nM
- Ki (GCN2 kinase): < 10 nM

Structure (SMILES): CC1C(CS(C)(=N)=O)OCCN1c1cc(-c2cnc3ccc(C(F)F)nn23)ncn1 (centres unmarked) [II-425, ((4-(6-(6-(Difluoromethyl)imidazo[1,2-b]pyridazin-3-yl)pyrimidin-4-yl)-3-methylmorpholin-2-yl)methyl)(imino)(methyl)-λ^6-sulfanone]
- IC50 [1]: 500 to 5000 nM
- Ki (GCN2 kinase): 10 to 1000 nM

Structure (SMILES): CC1C(CS(C)(=O)=O)OCCN1c1cc(-c2cnc3ccc(C(F)F)nn23)ncn1 (centres unmarked) [II-426, 4-(6-(6-(Difluoromethyl)imidazo[1,2-b]pyridazin-3-yl)pyrimidin-4-yl)-3-methyl-2-((methylsulfonyl)methyl)morpholine]
- IC50 [1]: 500 to 5000 nM
- Ki (GCN2 kinase): 10 to 1000 nM

Structure (SMILES): CC1CN(c2cc(-c3cnc4ccc(C(F)F)nn34)ncn2)C(C)C(CNS(C)(=O)=O)N1 (centres unmarked) [II-427, N-((4-(6-(6-(Difluoromethyl)imidazo[1,2-b]pyridazin-3-yl)pyrimidin-4-yl)-3,6-dimethylpiperazin-2-yl)methyl)methanesulfonamide]
- IC50 [1]: < 500 nM
- Ki (GCN2 kinase): < 10 nM
